Data: patent publication EP0136569A2, “Isoflavone derivatives, their production and use” (Takeda Chemical Industries, Ltd., priority 1983, dated 1985)

System: young oophorectomized rats
Experiment: Estrogenic activity (uterine wet weight) in young oophorectomized rats
Type: in vivo, Sprague-Dawley rats
Excerpt: Test Example 1 Estrogenic activity of 7-isopropoxy-3-(4-hydroxyphenyl)-4H-1-benzopyran-4-one (hereinafter referred to as compound A) in young oophorectomized rats Sprague-Dawley rats, 33 days old and 11 days after oophorectomy for elimination of endogenous estrogenic activity, were used in groups of 6 to 7 animals. Compound A was suspended in a 1% aqueous solution of hydroxypropyl-cellulose and administered orally for 3 days, while as a representative example of the conventional estrogen drug, estrone was dissolved in sesame oil and administered subcutaneously for 3 days. On the fourth day, each animal was autopsied and its uterine wet weight was recorded.

CC(C)Oc1ccc2c(=O)c(-c3ccc(O)cc3)coc2c1 [Compound A, 7-isopropoxy-3-(4-hydroxyphenyl)-4H-1-benzopyran-4-one]
Uterine wet weight (mg ± S.D.) (daily dose 6.25 mg/kg, orally for 3 days, autopsy on fourth day, n=7): 32.6 ± 1.2 mg | Uterine wet weight (mg ± S.D.) (daily dose 25 mg/kg, orally for 3 days, autopsy on fourth day, n=7): 39.2 ± 2.3 mg | Uterine wet weight (mg ± S.D.) (daily dose 100 mg/kg, orally for 3 days, autopsy on fourth day, n=7, significant vs control (P<0.01)): 56.3 ± 3.7 mg | Uterine wet weight (mg ± S.D.) (daily dose 400 mg/kg, orally for 3 days, autopsy on fourth day, n=6, significant vs control (P<0.01)): 83.0 ± 6.9 mg | uterine weight increasing effect, dose-response curve (orally for 3 days, daily dose levels of 100 mg/kg and 400 mg/kg): uterine weight increasing effect with a dose-response curve of moderate gradient

C[C@]12CC[C@@H]3c4ccc(O)cc4CC[C@H]3[C@@H]1CCC2=O [Estrone, estrone, reference compound]
Uterine wet weight (mg ± S.D.) (daily dose 0.0025 mg/kg, subcutaneously for 3 days in sesame oil, n=7, significant vs control (P<0.01)): 121.1 ± 7.0 mg | Uterine wet weight (mg ± S.D.) (daily dose 0.005 mg/kg, subcutaneously for 3 days in sesame oil, n=7, significant vs control (P<0.01)): 200.5 ± 14.3 mg | Uterine wet weight (mg ± S.D.) (daily dose 0.01 mg/kg, subcutaneously for 3 days in sesame oil, n=7, significant vs control (P<0.01)): 247.2 ± 14.6 mg
